Assay results as given in ChEMBL document CHEMBL1139768, “The discovery of potent, selective, and orally bioavailable hNK1 antagonists derived from pyrrolidine” (Bioorg Med Chem Lett, 2007).
pIC50: −log10 of the molar value.

Key:
[1] = system: Gerbillinae; assay: Inhibition of GR-73632-induced foot tapping in gerbils at 6 mg/kg, iv after 24 hrs; assay type: functional
[2] = system: Gerbillinae; assay: Inhibition of GR-73632-induced foot tapping in iv dosed gerbils after 24 hrs; assay type: functional; details: for ED50: Gerbillinae, iv, 24 h, read-out: ID50 (the source's name)
[3] = system: Gerbillinae; assay: Inhibition of GR-73632-induced foot tapping in gerbils at 1 mg/kg, iv; assay type: functional
[4] = biological target: T1, Substance-P receptor (Homo sapiens, UniProt P25103); assay: Displacement of [125I]-SP from human NK1 receptor expressed in CHO cells
[5] = system: Gerbillinae; assay: Inhibition of GR-73632-induced foot tapping in gerbils at 3 mg/kg, iv after 24 hrs; assay type: functional; details: for inhibition in vivo at 3 mg/kg: Gerbillinae, iv, 24 h; for Inhibition: 3 mg/kg
[6] = system: Gerbillinae; assay: Inhibition of GR-73632-induced foot tapping in iv dosed gerbils; assay type: functional; details: for ED50: Gerbillinae, iv, read-out: ID50 (the source's name)
[7] = biological target: T1, Substance-P receptor; assay: Displacement of [125I]-SP from human NK1 receptor expressed in CHO cells at 100 nM

T1 sequence (P25103 whole entry): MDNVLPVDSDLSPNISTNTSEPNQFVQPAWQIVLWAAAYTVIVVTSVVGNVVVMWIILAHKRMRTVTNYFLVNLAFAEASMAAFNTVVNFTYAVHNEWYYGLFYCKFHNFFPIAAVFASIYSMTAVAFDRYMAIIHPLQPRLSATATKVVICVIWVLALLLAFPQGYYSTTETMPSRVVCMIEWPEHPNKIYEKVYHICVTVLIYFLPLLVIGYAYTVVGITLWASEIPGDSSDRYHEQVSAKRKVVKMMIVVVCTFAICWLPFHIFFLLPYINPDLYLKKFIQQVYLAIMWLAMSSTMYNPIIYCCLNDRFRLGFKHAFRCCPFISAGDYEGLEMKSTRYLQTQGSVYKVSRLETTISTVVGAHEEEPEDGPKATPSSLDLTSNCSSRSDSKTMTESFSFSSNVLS

| Structure (SMILES) | inhibition in vivo at 6 mg/kg [1] | pIC50 [4] | inhibition in vivo at 3 mg/kg [5] | further results |
| --- | --- | --- | --- | --- |
| CCNC(=O)N1C[C@@H](O[C@H](C)c2cc(C(F)(F)F)cc(C(F)(F)F)c2)[C@H](c2ccc(F)cc2)C1 | 93% | 10.00 |  | ED50 [2]: 1 mg/kg; inhibition in vivo at 1 mg/kg [3]: 61% |
| C[C@@H](O[C@@H]1CN(C2=CC(=O)C(C)(C)CC2)C[C@H]1c1ccccc1)c1cc(C(F)(F)F)cc(C(F)(F)F)c1 |  | 9.74 | 12% |  |
| CC1CC(N2C[C@@H](O[C@H](C)c3cc(C(F)(F)F)cc(C(F)(F)F)c3)[C@H](c3ccc(F)cc3)C2)=CC1=O (stereo in doubt) |  | 10.05 |  | Inhibition [5]: 2% |
| C[C@@H](O[C@@H]1CN(C2=CC(=O)OC2)C[C@H]1c1ccc(F)cc1)c1cc(C(F)(F)F)cc(C(F)(F)F)c1 |  | 9.80 | 67% |  |
| CC(=O)N1C[C@@H](O[C@H](C)c2cc(C(F)(F)F)cc(C(F)(F)F)c2)[C@H](c2ccccc2)C1 | 98% | 10.05 |  | ED50 [2]: 3.2 mg/kg; ED50 [6]: 0.6 mg/kg |
| C[C@@H](O[C@@H]1CN(C(=O)N2CCn3c(nnc3C(F)(F)F)C2)C[C@H]1c1ccc(F)cc1)c1cc(C(F)(F)F)cc(C(F)(F)F)c1 |  | 9.33 | 66% |  |
| C[C@@H](O[C@@H]1CN(C2=CC(=O)N(C)C2)C[C@H]1c1ccc(F)cc1)c1cc(C(F)(F)F)cc(C(F)(F)F)c1 |  | 9.92 | 8% |  |
| CC(=O)N1CCC(C(=O)N2C[C@@H](O[C@H](C)c3cc(C(F)(F)F)cc(C(F)(F)F)c3)[C@H](c3ccc(F)cc3)C2)CC1 |  | 10.15 | 50% |  |
| CCC(=O)N1C[C@@H](O[C@H](C)c2cc(C(F)(F)F)cc(C(F)(F)F)c2)[C@H](c2ccc(F)cc2)C1 | 0% | 10.05 |  |  |
| CC(=O)N1C[C@@H](O[C@@H](C)c2cc(C(F)(F)F)cc(C(F)(F)F)c2)[C@H](c2ccccc2)C1 |  |  |  | inhibition [7]: 18% |
| C[C@@H](O[C@@H]1CN(C(=O)NC(C)(C)C)C[C@H]1c1ccc(F)cc1)c1cc(C(F)(F)F)cc(C(F)(F)F)c1 | 6% | 9.85 |  | inhibition in vivo at 1 mg/kg [3]: 28% |
| CC1CC(N2C[C@@H](O[C@H](C)c3cc(C(F)(F)F)cc(C(F)(F)F)c3)[C@H](c3ccc(F)cc3)C2)=CC1=O (single isomer, unassigned; diastereomer A) |  | 9.80 |  | Inhibition [5]: 85% |
| C[C@@H](O[C@@H]1CN(C(=O)[C@@H]2CCC(=O)N2C)C[C@H]1c1ccc(F)cc1)c1cc(C(F)(F)F)cc(C(F)(F)F)c1 |  | 9.92 | 100% | ED50 [2]: 1.2 mg/kg; ED50 [6]: 0.6 mg/kg |
| C[C@@H](O[C@@H]1CN(C(=O)C(C)(C)C)C[C@H]1c1ccccc1)c1cc(C(F)(F)F)cc(C(F)(F)F)c1 | 45% | 9.74 |  |  |
| C[C@@H](O[C@@H]1CN(C2=CC(=O)C(O)C2)C[C@H]1c1ccc(F)cc1)c1cc(C(F)(F)F)cc(C(F)(F)F)c1 (stereo in doubt) |  | 9.52 | 95% | ID50 [2]: 0.5 mg/kg; ID50 [6]: 1.1 mg/kg |
| CC(=O)N1C[C@@H](O[C@H](C)c2cc(C(F)(F)F)cc(C(F)(F)F)c2)[C@H](c2ccc(F)cc2)C1 | 26% | 10.15 |  |  |
